Columns and labels:
[1] = tested on: bleomycin-induced pulmonary fibrosis and pulmonary hypertension; conditions: Hemnes et al. 2008; cited from earlier work
[2] = tested on: patients with pulmonary fibrosis; conditions: Ghofrani 2002, Collard 2007; cited from earlier work
mice = conditions: bleomycin-induced lung fibrosis model in mice; Cortijo et al. 2009; cited from earlier work
PDE5A1 = target: T1, PDE5A1 (Homo sapiens, UniProt O76074); assay: Inhibition of type 5 phosphodiesterase (PDE5) activity, modified SPA test with human platelet lysate; type: biochemical; conditions: 0.5 μM cGMP, read-out: PDE5A1 inhibitory values [measured as −log IC50 (mol/l)] (converted)
T1 construct: from tissue; host or cells: human platelets from fresh donor blood (10,000 x g supernatant of sonicated lysate)
Procedure, shortened: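 Scintillation proximity assay with [3H]cGMP tracer at 0.5 μM total cGMP, stopped after 15 min with beads containing IBMX. PDE3 and PDE2 activities suppressed with motapizone (1 μM) and a PDE2 inhibitor (10 nM). Human platelet supernatant served as the enzyme, with compound preincubated 5 min at 37° C; IC50 values from concentration-effect curves.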

PDE4B1 = target: T2, PDE4B1 (Homo sapiens, UniProt Q07343); assay: Inhibition of type 4 phosphodiesterase (PDE4) activity, modified SPA test with recombinant PDE4B1 expressed in SF21 insect cells; type: biochemical; conditions: recombinant PDE4B1, 0.5 μM cAMP, read-out: PDE4B1 inhibitory values [measured as −log IC50 (mol/l)] (converted)
T2 construct: made in house; host or cells: SF21 insect cells (baculovirus; pCRBac vector), 1000 x g supernatant of homogenate
Procedure, shortened: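 Modified [3H]cAMP SPA using 1000×g supernatant of SF21 cells expressing recombinant human PDE4B1, in 20 mM Tris pH 7.4, 0.1 mg/ml BSA, 5 mM Mg2+, 0.5 μM cAMP. After 5 min preincubation at 37 °C, 15 min reaction, stopped with SPA beads plus IBMX; IC50 by non-linear regression.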

T2 sequence (Q07343 whole entry): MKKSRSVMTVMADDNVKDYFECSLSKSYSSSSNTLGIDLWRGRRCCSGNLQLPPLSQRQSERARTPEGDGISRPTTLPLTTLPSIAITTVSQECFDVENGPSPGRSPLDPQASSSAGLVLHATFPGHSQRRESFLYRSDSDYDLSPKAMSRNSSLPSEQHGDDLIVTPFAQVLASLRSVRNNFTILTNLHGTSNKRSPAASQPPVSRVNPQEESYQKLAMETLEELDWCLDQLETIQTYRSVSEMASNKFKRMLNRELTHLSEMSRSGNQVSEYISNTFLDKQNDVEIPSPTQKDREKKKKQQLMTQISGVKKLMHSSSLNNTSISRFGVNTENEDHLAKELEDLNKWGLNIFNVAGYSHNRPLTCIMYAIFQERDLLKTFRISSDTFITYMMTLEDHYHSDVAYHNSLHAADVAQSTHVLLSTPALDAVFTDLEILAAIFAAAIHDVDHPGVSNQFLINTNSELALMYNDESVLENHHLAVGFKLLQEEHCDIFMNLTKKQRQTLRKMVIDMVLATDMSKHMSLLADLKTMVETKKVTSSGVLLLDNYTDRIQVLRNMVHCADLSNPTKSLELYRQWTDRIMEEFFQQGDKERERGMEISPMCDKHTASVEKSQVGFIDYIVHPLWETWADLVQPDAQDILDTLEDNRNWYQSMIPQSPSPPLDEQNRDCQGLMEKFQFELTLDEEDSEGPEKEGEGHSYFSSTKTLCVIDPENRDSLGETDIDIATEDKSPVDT

In the case of `CCCc1nn(C)c2c(=O)[nH]c(-c3cc(S(=O)(=O)N4CCN(C)CC4)ccc3OCC)nc12` [sildenafil], the “bleomycin-induced pulmonary fibrosis and pulmonary hypertension” value [1] is listed as “attenuates bleomycin-induced pulmonary fibrosis and pulmonary hypertension”, the exercise tolerance [2] is listed as “increases exercise tolerance” and the “lung hemodynamic (vascular resistance and ventilation/perfusion matching)” value [2] is listed as “improves lung hemodynamic”.
In the case of `O=C(Nc1c(Cl)cncc1Cl)c1ccc(OC(F)F)c(OCC2CC2)c1` [roflumilast], the fibrosis development (mice) is listed as “inhibit fibrosis development”.
For `CCC(=O)N1CCC(NC(=O)c2c(C)[nH]c3c(-c4cc(OC)ccc4OCC4CC4)ncnc23)CC1` [Example E67, 4-[2-(Cyclopropylmethoxy)-5-methoxyphenyl]-6-methyl-N-(1-propionylpiperidin-4-yl)-5H-pyrrolo[3,2-d]pyrimidine-7-carboxamide], the IC50 (PDE5A1) was < 0.001 µM and the IC50 (PDE4B1) was 0.1 to 1 µM.
